# PubChem BioAssay AID652047 (Broad Institute, 2013)
# Tested on: P. falciparum 3D7 in RBCs, SYBR Green DNA fluorescence
# Test: growth inhibition of P. falciparum 3D7, dose response, 3D7 strain, red blood cells, SYBR Green, cherry-picked (AID 652047)
row,Compound,AC35
1,Cc1nc2ccc(C(C(F)(F)F)(C(F)(F)F)C(F)(F)F)cc2[nH]1,17.8 µM
2,CCCCNC(=S)N/N=C1\CCCCc2ccccc21,18.3 µM
3,CN(C)c1nc(SCc2ccc(Cl)cc2)nc2c1CCCC2,40.2 µM
4,Cc1ccc(NC(=S)c2nc3ccccc3[nH]2)c(C)c1,5.34 µM
5,Cc1c(Cc2ccccc2)c(NCCN(C)C)n2c(nc3ccccc32)c1C#N,7.32 µM
6,COc1cnc(-c2ccccn2)nc1N(C)c1ccccc1,0.962 µM
7,[O-][n+]1cccc2c(Br)cc(Br)c(O)c21,7.13 µM
8,CC1=CC(=O)C=C(C)C1=NOS(=O)(=O)c1ccccc1,17.4 µM
9,CCC(=O)NC(c1ccco1)c1cc(Cl)c2cccnc2c1O (centres undefined),0.484 µM
10,CCCCCCCn1c(=O)c(C(=O)OC)c(N)c2ccccc21,13.6 µM
11,CCc1ccc(OCc2n[nH]c(=S)n2Cc2ccccc2)cc1,32 µM
12,Cc1ccc(Sc2cc(C)nc(-c3ccccn3)n2)cc1,3.19 µM
13,Oc1c(I)cc(Cl)c2cccnc12,2.33 µM
14,O=C(Nc1ccc(Cl)cc1C(=O)Nc1ccc(Br)cn1)c1ccco1,15.1 µM
15,CN(Cc1ccc(Cl)s1)C(=O)CCl,1.69 µM
16,O=C(NC(=S)N(CCc1ccccc1)CCc1ccccc1)c1ccco1,12 µM
17,S=C(NCc1ccco1)Nc1ccc(Oc2ccc(Cl)cc2)cc1,24 µM
18,CC(=O)Oc1ccc(OC(C)=O)c(SCCCCCCl)c1,4.82 µM
19,Cc1cc(-c2ccccc2)n(-c2cc(N/N=C/c3ccccc3O)ncn2)n1,3.99 µM
20,O=[N+]([O-])c1cccc(C=NNc2ccc3ccccc3n2)c1O,4.23 µM
21,CCCOc1ccc(S(=O)(=O)n2cc(F)c(=O)[nH]c2=O)cc1,30.4 µM
22,O=C(NCCC1=CCCCC1)c1c(O)nc2sccn2c1=O,17 µM
23,Cc1ccc(Nc2cc(C)nn2-c2nc(C)cc(C)n2)cc1,2.38 µM
24,Oc1c(CN2CCCC2)cc(COCc2ccccc2)c2cccnc12,13.8 µM

row,Compound,AC35
1,CCCCCCC(Cl)(Cn1ccnc1)c1ccccc1 (centres undefined),4.06 µM
2,CCc1cc(SC#N)cc(C)c1NC(=O)CCl,7.77 µM
3,O=C(COc1ccc([N+](=O)[O-])cc1)Nc1nc(-c2ccccn2)cs1,6.63 µM
4,Clc1ccccc1C(c1ccccc1)(c1ccccc1)n1ccnc1,0.448 µM
5,Cc1ccc(NC(=O)CN(C)C(=O)c2cccnc2Nc2cccc(C(F)(F)F)c2)cc1,7.58 µM
6,O=[N+]([O-])c1cc(C(F)(F)F)ccc1NCCc1c[nH]c2ccc(O)cc12,28.3 µM
7,CCN1C(=O)C(CC(=O)Nc2ccccc2Cl)N(NC(=O)c2cccc(F)c2)C1=S (centres undefined),21.2 µM
8,COC(=O)c1cccc2c1-c1ccccc1/C2=N/O,34.7 µM
9,CN1CCN(C(=O)c2cc(COc3ccc(F)cc3Cl)on2)CC1c1ccccc1 (centres undefined),38.8 µM
10,O/N=C(\c1ccc(Cl)cc1)c1cc2ccccc2o1,8.56 µM
11,CC1(C(=O)OCC(=O)Nc2ccc3ccccc3c2)CC1(Cl)Cl (centres undefined),42.6 µM
12,CCCCC(=O)NC(c1ccco1)c1cc(Cl)c2cccnc2c1O (centres undefined),1.48 µM
13,O=C(Nc1nnc(-c2ccccc2)o1)c1ccc(Cl)cc1,12.4 µM
14,O=c1c(O)c(-c2ccccc2)oc2ccccc12,31.1 µM
15,O=C(Nc1nnc(SCc2ccc(F)cc2)s1)c1ccccn1,2.17 µM
16,COc1cccc(/C=N/Nc2ncnc(Cl)c2N)c1O,0.896 µM
17,Cc1[nH]n(-c2ccccc2)c(=O)c1/C=N/Nc1nncc(-c2ccccc2)n1,1.2 µM
18,CC(=O)Nc1cccc(NC(=O)CSc2ccc(-c3ccccn3)nn2)c1,14 µM
19,CCCCNc1c(-c2ccc(-c3ccc(OC)cc3)c(OC)c2)nc2ccccn12,5.67 µM
20,CCOC(=O)N1C(=O)C2(CCCCC2)N(c2ccccc2Cl)C1=S,12.8 µM
21,O=S1OC(c2ccccc2)c2cc(Cl)ccc21 (centres undefined),11.3 µM
22,O=c1cc(CSc2ccc(Cl)cc2)nc(-c2ccccn2)[nH]1,1.93 µM
23,Oc1ccc(/C=N/Nc2ccc(C(F)(F)F)cn2)c(O)c1,5.21 µM
24,COc1ccc(O)c(C(=O)CC(=O)c2ccc(F)cc2)c1,16.1 µM

row,Compound,AC35
1,O=C1OCC(CO)(CO)N=C1NNc1ccc(Cl)c(Cl)c1,19.1 µM
2,O=C(NCC1CC1(Cl)Cl)Nc1ccc(Cl)c(Cl)c1 (centres undefined),8.82 µM
3,Cc1ccc2c(C)c3ccc4ccccc4c3c[n+]2c1,0.0368 µM
4,CCCS(=O)(=O)c1c(S(=O)(=O)CCC)c2c(C)cccn2c1C(=O)N/N=C/c1cc(O)cc(O)c1,8.14 µM
5,CC(NC(=S)NC1CCC(C(C)(C)C)CC1)c1ccccc1 (centres undefined),10.2 µM
6,Cc1ccc(NC2(c3nnnn3-c3c(C)cccc3C)CCCCC2)cc1,15.7 µM
7,O=C(N/N=C/c1ccc[nH]1)c1sc2ccccc2c1Cl,8.77 µM
8,CCCCC(=O)NC(=S)NNC(=O)CCc1ccccc1,20.8 µM
9,CC(=O)NC(c1ccc(C)cc1)c1cc([N+](=O)[O-])c2cccnc2c1O (centres undefined),10.1 µM
10,O=c1c2ccccc2nc(-c2ccc(-c3ccccc3)cc2)n1-c1ccncc1,3.6 µM
11,Cc1cc(C)c(C(=O)CC(=O)c2cccnc2)c(C)c1,6.77 µM
12,Cc1nc(SCc2ccc(OCCC(C)C)cc2)n[nH]1,16.5 µM
13,CC1(C)C2CCC1(C)C(OC(=O)c1ccc(O)cc1)C2 (centres undefined),12.2 µM
14,CCCCNc1c(-c2cccc(-c3ccc(OC)cc3)c2)nc2ccc(C)cn12,2 µM
15,COc1cnc(-c2ccccn2)nc1Sc1ccccc1,4.67 µM
16,O=CC1=C(c2ccccc2)Oc2ccccc2O1,8.24 µM
17,Cc1c(C(=O)O)cccc1-c1ccc(/C=N/Nc2ccc(Br)cc2)o1,20.2 µM
18,CCCCCCCc1ccc(-c2ccc(O)cc2)nc1,7.43 µM
19,CCC1=NN(C(=O)c2cccc(Br)c2)C(O)(c2ccc(Br)cc2)C1 (centres undefined),14.7 µM
20,CCC(NC(=S)NCc1ccc(F)cc1)c1ccc(C(C)C)cc1 (centres undefined),11.8 µM
21,CCOC(=O)c1ccc(NC(=S)N(Cc2cccnc2)Cc2ccco2)cc1,21.7 µM
22,COc1cc2cnc(-c3ccccc3)c(C(=O)c3ccc(F)cc3)c2cc1OC,34.4 µM
23,CCn1c2ccc(C)cc2c2nc3cc(C(=O)O)ccc3nc21,42.6 µM
24,CC(C)N1CCN(c2ccc(OCC3COC(Cn4cncn4)(c4ccc(Cl)cc4Cl)O3)cc2)CC1 (centres undefined),3.77 µM

row,Compound,AC35
1,Oc1ccc(Br)cc1/C=N/Nc1ccccn1,2.68 µM
2,CCCCCOc1ccc(CSc2n[nH]c(C)n2)cc1,18.6 µM
3,CC(C)N1CCN(c2ccc(OC[C@H]3CO[C@](Cn4cncn4)(c4ccc(Cl)cc4Cl)O3)cc2)CC1,5.3 µM
4,Cn1nc(C(F)(F)F)c(C#N)c1N1CCN(c2ccc(F)cc2)CC1,41.9 µM
5,COc1ccc(-c2cc(C(=O)N3CCN(c4ccccc4F)CC3)c3ccccc3n2)c(OC)c1,9.76 µM
6,COc1cccc(/C=N/NC(=O)c2nc(-c3ccccc3)cc(-c3ccccc3)n2)c1O,6.29 µM
7,CC(C)C(=O)NC(c1ccco1)c1ccc2cccnc2c1O (centres undefined),2.02 µM
8,c1ccc(C(=NNc2nc3ccccc3s2)c2ccccn2)cc1,1.5 µM
9,COc1cnc(-c2ccccn2)nc1Oc1ccc(C(C)(C)C)cc1,2.05 µM
10,C[n+]1c2cc(N)ccc2cc2ccc(N)cc21,0.0327 µM
11,Cc1oc2c(c1C(=O)c1ccccc1)C(=O)C(=O)c1ccccc1-2,3.23 µM
12,Cc1c(C2(O)CCCCC2)[nH]c2ccc(C(F)(F)F)cc12,27.4 µM
13,O=C(OCC(=O)C12CC3CC(CC(C3)C1)C2)c1ccc(O)cc1,44.4 µM
14,Nc1cc2nc3ccccc3oc-2cc1=O,2.14 µM
15,O=C(Nc1ccc(Br)c(C(F)(F)F)c1)c1ccccc1,20 µM
16,CC1CCN(c2nc(-c3ccncc3)nc3ccccc23)CC1,4.32 µM
17,CNc1ccc2oc(C[C@H]3O[C@@]4(CC[C@H]3C)O[C@H]([C@H](C)C(=O)c3ccc[nH]3)[C@H](C)C[C@H]4C)nc2c1C(=O)O,1.01 µM
18,Cc1ccoc1C(=O)Nc1cccc(Oc2ccccc2)c1,10.4 µM
19,CCCn1nc(C(=O)N2CCN(S(=O)(=O)c3ccc(C)c(C)c3)CC2)c2ccccc2c1=O,11.7 µM
20,C[C@@]12CCC3[C@@](CCC4[C@@]3(C)CCC[C@@]4(C)C(=O)NCc3ccccc3)(CC1=O)C2 (some centres undefined),30.2 µM
21,CN(C)c1ccc(C=c2c3cc(O)ccc3n3c2cc(-c2ccccc2)[n+]3C)cc1,0.127 µM
22,Cc1ccc(NS(=O)(=O)c2ccc(N3CCN(c4ccc(O)cc4)CC3)c([N+](=O)[O-])c2)c(C)c1,17.2 µM
23,Cc1nc(-c2ccccn2)nc(N(C)c2ccccc2)c1Cl,3.26 µM
24,Oc1ccccc1-c1cc(-c2ccc3c(c2)OCCO3)n[nH]1,15.2 µM

row,Compound,AC35
1,O=C(Oc1c(Cl)cc(Cl)c2cccnc12)c1cccs1,17.7 µM
2,COc1cc(NS(=O)(=O)c2ccc(C)cc2)c2ncccc2c1,6.47 µM
3,O=[N+]([O-])c1ccc2c(OCc3nnc(-c4ccccc4Br)o3)ncnc2c1,25.5 µM
4,O/N=C(\c1ccc(Cl)cc1Cl)c1ncc(C(F)(F)F)cc1Cl,16.9 µM
5,CC12CC3(C)CC(C)(C1)CC(NC(=O)N1CCCC1)(C2)C3,22.2 µM
6,Cc1ccc(-n2nnnc2SCC(=O)N2CCc3ccccc3C2)c(C)c1,30.7 µM
7,CCC(C)c1ccc(NC(=S)NCCn2cc(Br)cn2)cc1 (centres undefined),13.9 µM
8,Cc1cccc2sc(NNC(=O)c3ccc(S(=O)(=O)N4CCCC(C)C4)cc3)nc12 (centres undefined),3.46 µM
9,COc1cc(/C=N/O)cc(Br)c1OCc1cccc(Cl)c1,29.6 µM
10,C=CCc1ccc(O)c(-c2ccc(O)c(CC=C)c2)c1,15.8 µM
11,NC(=O)N=Nc1c2[nH]c3ccccc3nc-2c2ccccc12,10.7 µM
12,CC(=O)NC(c1cccc([N+](=O)[O-])c1)c1ccc2cccnc2c1O (centres undefined),2 µM
13,Cc1cccc(Oc2nc(-c3ccccn3)nc3ccccc23)c1,3.89 µM
14,Cc1ccc(Cl)cc1NC1=C/C(=N\S(=O)(=O)c2cccs2)c2ccccc2C1=O,0.0436 µM
15,CCCCCCn1c(=O)c(C(=O)Nc2ncccc2C)c(O)c2ccccc21,2.57 µM
16,c1ccc(-c2ccc(SCc3cccnc3)nn2)nc1,33.1 µM
17,Cc1ccc(S(=O)(=O)Nc2ccc(O)c3cccnc23)cc1,7.02 µM
18,Fc1ccc(CCNC(=S)Nc2ccc(F)c(Cl)c2)cc1,15.9 µM
19,CC(C)C(=O)NC(c1cccc([N+](=O)[O-])c1)c1ccc2cccnc2c1O (centres undefined),1.01 µM
20,COC(=O)C1=C(C)NC(C)=C(C(=O)OCC(C)C)C1c1ccccc1[N+](=O)[O-] (centres undefined),4.78 µM
21,CC(C)=CCc1c(O)ccc(C(=O)Cc2ccccc2)c1O,16.4 µM
22,COc1ccc2oc(=O)c(-c3csc(Nc4cccc(O)c4)n3)cc2c1,15.7 µM
23,O=C(NOC(=O)c1ccccc1)c1ccccc1,20.9 µM
